Measurements from US12281122B1, “PI3K inhibitors” (Cogent Biosciences, Inc., priority 2023, dated 2025).

Columns and labels:
[1] = system: SKBR3 (PI3Kα-Wild Type) cell line; test: HTRF phospho-AKT(S473) cell assay in SKBR3 cells; format: cell-based, human; settings: Homo sapiens, SK-BR-3, 2 hours compound incubation, PDGF-BB stimulated
Method in brief: (§1)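 pAKT(S473) in lysates read by HTRF after a 2 h, 37 °C compound exposure (12-point 1:3 series, max 0.5% DMSO). SKBR3 (wild type, top 10 μM) received 70 ng/ml PDGF-BB during the final 15 min; T47D (H1047R, top 5 μM) was unstimulated. IC50 values derived from the dose-response.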

[2] = system: T47D (PI3Kα-H1047R) cell line; test: HTRF phospho-AKT(S473) cell assay in T47D cells; format: cell-based, human; settings: Homo sapiens, 2 hours compound incubation
Method in brief: as §1

[3] = HTRF phospho-AKT(S473), SKBR3 (PI3Kα-Wild Type) cells
[4] = HTRF phospho-AKT(S473), T47D (PI3Kα-H1047R) cells
[5] = SKBR3 (PI3Kα-Wild Type) cells, HTRF phospho-AKT(S473)
[6] = T47D (PI3Kα-H1047R) cells, HTRF phospho-AKT(S473)

Row | IC50 [1, 3] [nM] | IC50 [2, 4] [nM] | Structure (SMILES) | other results
1 | ≥ 5000 | 500 to 1000 | Cc1cc([C@@H](C)Nc2ccc(Cl)nc2C(=O)NS(C)(=O)=O)c2nc([C@H]3[C@@H]4CN(c5cnc(C)c(F)c5)C[C@@H]43)n(C)c(=O)c2c1 [Compound 828, 6-chloro-3-(((R)-1-(2-((1R,5S,6r)-3-(5-fluoro-6-methylpyridin-3-yl)-3-azabicyclo[3.1.0]hexan-6-yl)-3,6-dimethyl-4-oxo-3,4-dihydroquinazolin-8-yl)ethyl)amino)-N-(methylsulfonyl) picolinamide] | 
2 | 1000 to 5000 | < 250 | Cc1cc([C@@H](C)Nc2ccc(Cl)nc2C(=O)NS(C)(=O)=O)c2nc(-c3cc(F)c4cn(C)nc4c3)n(C)c(=O)c2c1 [Compound 824, (R)-6-chloro-3-((1-(2-(4-fluoro-2-methyl-2H-indazol-6-yl)-3,6-dimethyl-4-oxo-3,4-dihydroquinazolin-8-yl)ethyl)amino)-N-(methylsulfonyl) picolinamide] | 
3 | 250 to 500 | < 250 | Cc1cc([C@@H](C)Nc2ccc(Cl)nc2C(=O)NS(C)(=O)=O)c2nc(N3CCC(n4cc(C#N)cn4)CC3)n(C)c(=O)c2c1 [Compound 686, (R)-6-chloro-3-((1-(2-(4-(4-cyano-1H-pyrazol-1-yl)piperidin-1-yl)-3,6-dimethyl-4-oxo-3,4-dihydroquinazolin-8-yl)ethyl)amino)-N-(methylsulfonyl) picolinamide] | 
4 | 1000 to 5000 | 250 to 500 | Cc1cc([C@@H](C)Nc2ccc(Cl)nc2C(=O)NS(C)(=O)=O)c2nc(N3CCC(n4nncc4C)CC3)n(C)c(=O)c2c1 [Compound 626, (R)-6-chloro-3-((1-(3,6-dimethyl-2-(4-(5-methyl-1H-1,2,3-triazol-1-yl)piperidin-1-yl)-4-oxo-3,4-dihydroquinazolin-8-yl)ethyl)amino)-N-(methylsulfonyl) picolinamide] | 
5 | ≥ 5000 | 250 to 500 | Cc1cc([C@@H](C)Nc2ccc(Cl)nc2C(=O)NS(C)(=O)=O)c2nc(N3C[C@@H]4[C@H](C3)[C@H]4n3cc(F)c(C)n3)n(C)c(=O)c2c1 [Compound 543, 6-chloro-3-(((R)-1-(2-((1R,5S,6S)-6-(4-fluoro-3-methyl-1H-pyrazol-1-yl)-3-azabicyclo[3.1.0]hexan-3-yl)-3,6-dimethyl-4-oxo-3,4-dihydroquinazolin-8-yl)ethyl)amino)-N-(methylsulfonyl) picolinamide] | 

More lines, now with the values behind:

Row | Structure (SMILES) | IC50 [1, 3] [nM] | IC50 [2, 4] [nM] | other results
6 | Cc1cc([C@@H](C)Nc2ccc(Cl)nc2C(=O)NS(C)(=O)=O)c2nc(N3CCC(c4cc5n(n4)CCO5)CC3)n(C)c(=O)c2c1 [Compound 556, (R)-6-chloro-3-((1-(2-(4-(2,3-dihydropyrazolo[5,1-b]oxazol-6-yl)piperidin-1-yl)-3,6-dimethyl-4-oxo-3,4-dihydroquinazolin-8-yl)ethyl)amino)-N-(methylsulfonyl) picolinamide] | 1000 to 5000 | < 250 | 
7 | Cc1cc([C@@H](C)Nc2ccc(Cl)nc2C(=O)NS(C)(=O)=O)c2nc(C3(c4ccccc4)CC3)n(C)c(=O)c2c1 [Compound 830, (R)-6-chloro-3-((1-(3,6-dimethyl-4-oxo-2-(1-phenylcyclopropyl)-3,4-dihydroquinazolin-8-yl)ethyl)amino)-N-(methylsulfonyl) picolinamide] | ≥ 5000 | 250 to 500 | 
8 | COc1ncc(-c2nc3c([C@@H](C)Nc4ccc(Cl)nc4C(=O)NS(C)(=O)=O)cc(C)cc3c(=O)n2C)cn1 [Compound 856, (R)-6-chloro-3-((1-(2-(2-methoxypyrimidin-5-yl)-3,6-dimethyl-4-oxo-3,4-dihydroquinazolin-8-yl)ethyl)amino)-N-(methylsulfonyl) picolinamide] |  |  | IC50 ([1]; SKBR3 (PI3Kα-Wild Type) cell line, phospho-AKT(S473) HTRF): ≥ 5000 nM; IC50 ([2]; T47D (PI3Kα-H1047R) cell line, phospho-AKT(S473) HTRF): 250 to 500 nM
9 | Cc1cc([C@@H](C)Nc2ccc(Cl)nc2C(=O)NS(C)(=O)=O)c2nc(-c3ccc4nn(CC(F)(F)F)cc4c3)n(C)c(=O)c2c1 [Compound 784, (R)-6-chloro-3-((1-(3,6-dimethyl-4-oxo-2-(2-(2,2,2-trifluoroethyl)-2H-indazol-5-yl)-3,4-dihydroquinazolin-8-yl)ethyl)amino)-N-(methylsulfonyl) picolinamide] | 1000 to 5000 | < 250 | 
10 | Cc1cc([C@@H](C)Nc2ccc(Cl)nc2C(=O)NS(C)(=O)=O)c2nc(-c3ccc(O[C@@H]4CCN(C)CC4(F)F)nc3)n(C)c(=O)c2c1 [Compound 244, 6-chloro-3-(((R)-1-(2-(6-(((R)-3,3-difluoro-1-methylpiperidin-4-yl)oxy)pyridin-3-yl)-3,6-dimethyl-4-oxo-3,4-dihydroquinazolin-8-yl)ethyl)amino)-N-(methylsulfonyl) picolinamide] |  |  | IC50 [1, 5]: 1000 to 5000 nM; IC50 [2, 6]: < 250 nM
11 | Cc1cc([C@@H](C)Nc2ccc(Cl)nc2C(=O)NS(C)(=O)=O)c2nc(N3CCc4c(cnn4CC(F)(F)F)C3)n(C)c(=O)c2c1 [Compound 221, (R)-6-chloro-3-((1-(3,6-dimethyl-4-oxo-2-(1-(2,2,2-trifluoroethyl)-1,4,6,7-tetrahydro-5H-pyrazolo[4,3-c]pyridin-5-yl)-3,4-dihydroquinazolin-8-yl)ethyl)amino)-N-(methylsulfonyl) picolinamide] |  |  | IC50 [1, 5]: 1000 to 5000 nM; IC50 [2, 6]: < 250 nM
12 | Cc1cc([C@@H](C)Nc2ccc(Cl)nc2C(=O)NS(=O)(=O)[C@H]2C[C@@H](O)C2)c2nc(N3Cc4ccc(F)cc4C3)n(C)c(=O)c2c1 (relative stereo) [Compound 337, 6-chloro-3-(((R)-1-(2-(5-fluoroisoindolin-2-yl)-3,6-dimethyl-4-oxo-3,4-dihydroquinazolin-8-yl)ethyl)amino)-N-(((1S*,3S*)-3-hydroxycyclobutyl)sulfonyl)picolinamide] |  |  | IC50 [1, 5]: 1000 to 5000 nM; IC50 [2, 6]: < 250 nM
13 | Cc1cc([C@@H](C)Nc2ccc(Cl)nc2C(=O)NS(=O)(=O)C2COC2)c2nc(N3Cc4cn(-c5ccccc5C)nc4C3)n(C)c(=O)c2c1 [Compound 628, (R)-6-chloro-3-((1-(3,6-dimethyl-4-oxo-2-(2-(o-tolyl)-2,6-dihydropyrrolo[3,4-c]pyrazol-5(4H)-yl)-3,4-dihydroquinazolin-8-yl)ethyl)amino)-N-(oxetan-3-ylsulfonyl)picolinamide] | ≥ 5000 | 250 to 500 | 
14 | Cc1cc([C@@H](C)Nc2ccc(Cl)nc2C(=O)NS(C)(=O)=O)c2nc(N3C[C@@H]4[C@H](C3)[C@H]4c3ccn(C(C)C)n3)n(C)c(=O)c2c1 [Compound 395, 6-chloro-3-(((R)-1-(2-((1R,5S,6R)-6-(1-isopropyl-1H-pyrazol-3-yl)-3-azabicyclo[3.1.0]hexan-3-yl)-3,6-dimethyl-4-oxo-3,4-dihydroquinazolin-8-yl)ethyl)amino)-N-(methylsulfonyl) picolinamide] |  |  | IC50 [1, 5]: ≥ 5000 nM; IC50 [2, 6]: 250 to 500 nM
15 | [2H]C([2H])([2H])n1nccc1C1CCN(c2nc3c([C@@H](C)Nc4ccc(Cl)nc4C(=O)NS(C)(=O)=O)cc(C)cc3c(=O)n2C)CC1 [Compound 747, (R)-6-chloro-3-((1-(3,6-dimethyl-2-(4-(1-(methyl-d3)-1H-pyrazol-5-yl)piperidin-1-yl)-4-oxo-3,4-dihydroquinazolin-8-yl)ethyl)amino)-N-(methylsulfonyl) picolinamide] | 1000 to 5000 | < 250 | 
